Here are results for 32 molecules from ChEMBL document CHEMBL3046205, “4-pyridyl carbonyl and related compounds as thrips lures: effectiveness for onion thrips and new zealand flower thrips in field experiments” (2007).

Holding throughout (type): functional
Test [1] relates to Thrips obscuratus. The test can be described thus: Thrips luring activity against female New Zealand Thrips obscuratus (flower thrips) assessed as ratio of thrips in baited traps to unbaited traps during field trapping study.
Test [2] has as its system Thrips obscuratus. The test can be described thus: Thrips luring activity against male New Zealand Thrips obscuratus (flower thrips) assessed as ratio of thrips in baited traps to unbaited traps during field trapping study.
In the next test the test system is Thrips tabaci. The test can be described thus: Thrips luring activity against female Thrips tabaci (onion thrips) assessed as ratio of thrips in baited traps to unbaited traps during field trapping study.

Consider `CCOC(=O)c1ccccc1O` [ETHYL SALICYLATE], for which the values for the Ratio in the test with Thrips obscuratus [1], in the test on Thrips obscuratus [2] and with Thrips tabaci were 32.6, 48.5 and 3, respectively.

Consider `CCOC(=O)c1ccncc1` [ETHYL ISONICOTINATE], for which the results for the Ratio with Thrips obscuratus [1], with Thrips obscuratus [2] and with Thrips tabaci were 31.6, 28.5 and 30.8, respectively.

Take `c1cc(C2OCCO2)ccn1` [PYRIDINE, 4-(1,3-DIOXALAN-2-YL)]: the values for the Ratio in the test with Thrips obscuratus [1], with Thrips obscuratus [2] and with Thrips tabaci were 16.6, 20.4 and 5.3, respectively.

Regarding `CCCCCCCCCCOC(=O)c1ccncc1` [N-DECYL ISONICOTINATE], the Ratio with Thrips obscuratus [1] was 14.9; in the test on Thrips obscuratus [2] it was 0; with Thrips tabaci it was 6.8.

Take `OCCc1ccncc1` [4-(2-HYDROXYETHYL)PYRIDINE]: the Ratio worked out at 0 with Thrips obscuratus [1], 0 in the test with Thrips obscuratus [2] and 1.3 in the test with Thrips tabaci.

Turning to `CC/C=C\CC1C(=O)CCC1CC(=O)OC` (stereo unspecified) [METHYL JASMONATE], the Ratio came out at 0.8 in the test with Thrips obscuratus [1], 0.9 in the test on Thrips obscuratus [2] and 0.7 in the test on Thrips tabaci.

Consider `CC(=O)c1ccccc1N` [2-AMINOACETOPHENONE], for which the results for the Ratio with Thrips obscuratus [1], in the test with Thrips obscuratus [2] and with Thrips tabaci were 20.7, 26.7 and 6, respectively.

For `CCOC(=O)c1ccnc(Cl)c1` [ETHYL-2-CHLOROPYRIDINE-4-CARBOXYLATE], the Ratio in the test with Thrips obscuratus [1] stood at 15.1; in the test with Thrips obscuratus [2] it was 19.3; in the test with Thrips tabaci it was 1.7.

Regarding `CC(C)OC(=O)c1ccncc1` [ISOPROPYL ISONICOTINATE], the Ratio is given as 9 in the test with Thrips obscuratus [1], 0 with Thrips obscuratus [2] and 8.8 in the test with Thrips tabaci.

As for `CCOC(=O)c1ccccc1` [ETHYL BENZOATE], the Ratio in the test on Thrips obscuratus [1] amounted to 35.4; in the test with Thrips obscuratus [2], 24.8; in the test on Thrips tabaci, 2.1.

As for `ClC(Cl)Cl` [CHLOROFORM], the Ratio came to 0 with Thrips obscuratus [1], 10.1 with Thrips obscuratus [2] and 1.1 in the test on Thrips tabaci.

Take `N#Cc1ccncc1` [ISONICOTINONITRILE]: the Ratio with Thrips obscuratus [1] is reported as 0; with Thrips obscuratus [2], 19.9; in the test on Thrips tabaci, 2.4.

With `COC(=O)c1ccccc1O` [METHYL SALICYLATE], the figures for the Ratio with Thrips obscuratus [1], with Thrips obscuratus [2] and in the test on Thrips tabaci were 24.8, 13.3 and 4, respectively.

In the case of `O=Cc1ccccc1` [BENZALDEHYDE], the Ratio in the test on Thrips obscuratus [1] is listed as 5; in the test on Thrips obscuratus [2], 3.6; in the test with Thrips tabaci, 4.

Turning to `CC(=O)/C=C/C1=C(C)CCCC1(C)C` [BETA-IONONE], the Ratio in the test with Thrips obscuratus [1] amounted to 1.8; in the test on Thrips obscuratus [2], 3.8; in the test on Thrips tabaci it was 2.6.

For the molecule `CCOC(=O)C1CCNCC1` [ETHYL ISONIPECOTATE], the Ratio with Thrips obscuratus [1] was determined as 0; in the test with Thrips obscuratus [2], 0; with Thrips tabaci, 4.

`CCOC(=O)c1ccccn1` [ETHYL PICOLINATE]: the Ratio is on record as 4.1 in the test on Thrips obscuratus [1], 5.9 with Thrips obscuratus [2] and 2.8 with Thrips tabaci.

`COC(=O)c1ccncc1` [METHYL ISONICOTINATE]: the Ratio in the test with Thrips obscuratus [1] worked out at 44.1; in the test on Thrips obscuratus [2], 5.1; with Thrips tabaci it was 18.9.

As for `OCCc1ccccc1` [PHENYLETHYL ALCOHOL], the Ratio in the test with Thrips obscuratus [1] amounted to 9.8; with Thrips obscuratus [2], 9.5; in the test with Thrips tabaci it was 3.8.

Take `CC/C=C\CC1=C(C)CCC1=O` [CIS-JASMONE]: the results for the Ratio in the test with Thrips obscuratus [1], with Thrips obscuratus [2] and with Thrips tabaci were 42.1, 24.5 and 1.2, respectively.

Take `COc1ccc(C=O)cc1` [ANISALDEHYDE]: the Ratio came out at 26.2 in the test with Thrips obscuratus [1], 22.6 in the test on Thrips obscuratus [2] and 4 with Thrips tabaci.

As for `CCOC(=O)c1ccccc1N` [ETHYL ANTHRANILATE], the values for the Ratio in the test on Thrips obscuratus [1], in the test with Thrips obscuratus [2] and with Thrips tabaci were 1.6, 0.6 and 1.1, respectively.

In the case of `CCCCCCOC(=O)c1ccncc1` [ISONICOTINIC ACID HEXYL ESTER], the values for the Ratio with Thrips obscuratus [1], with Thrips obscuratus [2] and in the test with Thrips tabaci were 0, 0 and 1.2, respectively.

With `COC(=O)c1ccccc1` [METHYL BENZOATE], the Ratio came out at 49.1 with Thrips obscuratus [1], 50.5 with Thrips obscuratus [2] and 6.6 in the test with Thrips tabaci.

Take `CCCOC(=O)c1ccncc1` [N-PROPYL ISONICOTINATE]: the Ratio was determined as 9 in the test on Thrips obscuratus [1], 0 in the test on Thrips obscuratus [2] and 15.4 with Thrips tabaci.

On to `O=Cc1ccccc1O` [SALICYLADEHYDE], for which the Ratio with Thrips obscuratus [1] stood at 20.7; with Thrips obscuratus [2], 15.7; in the test on Thrips tabaci it was 1.9.

`CC(=O)/C=C/C1C(C)=CCCC1(C)C` (stereo not drawn) [ALPHA-IONONE]: the Ratio was 1.8 in the test on Thrips obscuratus [1], 0 in the test on Thrips obscuratus [2] and 1.3 with Thrips tabaci.

Turning to `CC(=O)c1ccncc1` [METHYL 4-PYRIDYLKETONE], the Ratio with Thrips obscuratus [1] is given as 0; in the test with Thrips obscuratus [2], 10.3; in the test with Thrips tabaci it was 7.6.

As for `CCC(=O)c1ccncc1` [ETHYL 4-PYRIDYLKETONE], the Ratio stood at 19.4 in the test with Thrips obscuratus [1], 0 in the test on Thrips obscuratus [2] and 13.5 in the test with Thrips tabaci.

As to `COC(=O)c1ccccc1N` [METHYL ANTHRANILATE], the figures for the Ratio in the test with Thrips obscuratus [1], in the test with Thrips obscuratus [2] and in the test with Thrips tabaci were 28.3, 22.1 and 3.5, respectively.

For the molecule `CCOC(=O)c1cccnc1` [ETHYL NICOTINATE], the Ratio in the test on Thrips obscuratus [1] is recorded as 157.6; in the test with Thrips obscuratus [2], 84.8; in the test on Thrips tabaci it was 3.1.

Turning to `O=Cc1ccncc1` [4-FORMYLPYRIDINE], the Ratio in the test on Thrips obscuratus [1] came out at 7.9; in the test on Thrips obscuratus [2], 4.9; in the test on Thrips tabaci, 1.6.
